Test results reported in patent US20090209512A1, “NEUROGENESIS INDUCER OR NEUROPATHY THERAPEUTIC AGENT COMPRISING ALKYL ETHER DERIVATIVE OR SALT THEREOF” (Toyama Chemical Co., Ltd., priority 2006, published 2009).

Legend:
[1] = test system: cultured neural stem cells; assay: Effect on differentiation of cultured neural stem cell (Tuj1-positive cell ratio); assay type: cell-based, ICR mouse
Procedure: Cultured neural stem cells were prepared according to the partially modified method of Hirabayashi (Development, 2004, 131(12), p. 2791-2801). The cerebrum was removed from an ICR mouse embryo (embryonic day 14) and incubated in artificial cerebrospinal fluid (124 mM NaCl, 5 mM KCl, 1.3 mM MgCl2, 2 mM CaCl2, 26 mM NaHCO3, 10 mM D-Glucose, pH 7.4) containing 0.0625% trypsin and 0.1 mg/mL of DNaseI at 37° C. for 5 min. A trypsin inhibitor (final concentration: 0.35 mg/mL) was then added and the mixture was centrifuged at 800 rpm for 5 min. The obtained pellet was dispersed by pipetting in a neural stem cell culture medium (DMEM/F-12 culture medium containing 20 ng/mL basic fibroblast growth factor, 20 ng/mL epidermal growth factor and B27 supplement (Invitrogen)) to obtain single cell suspension. […]
After 3 days of culturing, the cells were washed with phosphate-buffered saline (PBS), fixed with 4% paraformaldehyde/phosphate buffer, treated with 0.3% Triton X-100/PBS solution at room temperature for 5 minutes, washed with PBS, and incubated with 0.5% skim milk at room temperature for 1 hour. […] The cells were washed with PBS and observed under fluorescence microscope, and the number of the Tuj1-positive cells emitting red fluorescence was counted, and its ratio against the total cell number was calculated as the differentiation ratio into neurons representing a neurogenesis inducing effect.

Male DBA/2J mice = assay: Novelty-suppressed feeding (NSF) test; assay type: in vivo; details: 10 mg/kg orally for 28 days
Procedure: The novelty-suppressed feeding (NSF) test (Santarelli et al., 2003, Science. 301: 805-9) was performed to assess antidepressant efficacy of T-817MA. Male DBA/2J mice (7 weeks old, 20-21 animals/group) were used. We administrated mice orally with T-817MA (10 mg/kg), or vehicle (distilled water) for 28 days before NSF test. At the time of testing, mice that had been food deprived for 24 hours were gently placed in a corner of a brightly lit arena (approximately 650 lux at floor of arena, 50×50×20 cm) for a maximum of 5 minutes. The floor was covered with approximately 2 cm of bedding. Pellet of food was attached by wire at the center of the arena. […] Statistical differences between vehicle group and T-817MA treated group were found by Dunnett test.

[2] = test system: cultured neural stem cells; details: Proc. Natl. Acad. Sci. U.S.A., 2004, 101(47), pp. 16659-64; cited from earlier work

Structure (SMILES)	Differentiation ratio compared with control group (neurogenesis inducing effect) ([1]; T-817MA 10 μM vs B27 supplemented DMEM/F-12 alone)	Differentiation ratio into neurons (%) (Ratio of Tuj1 positive cells) ([1]; T-817MA 10 μM, 3 days of culturing, B27-supplemented DMEM/F-12, control group 13.0)	NSF latency (mean) (Male DBA/2J mice; mice food deprived 24 hours, vehicle 227.2)	Latency to feed vs vehicle group (Male DBA/2J mice; P<0.01, Dunnett test)	Neurogenesis inducing effect in cultured neural stem cells [2]
OC1CN(CCCOCCc2ccc3sccc3c2)C1 [T-817MA, 1-(3-(2-(1-benzothiophen-5-yl)ethoxy)propyl)azetidin-3-ol]	higher differentiation ratio	27.4%	145.5 s	significant decreased latency to feed	–
CCCC(CCC)C(=O)O [valproic acid]	–	–	–	–	show the neurogenesis inducing effect
